Measurements from patent publication US11331299B2, “Medicinal use of serrulatane diterpenes” (The University of Sydney, priority 2016, dated 2022).
Like-named read-outs stand apart in the source and are kept apart here.

Test system: 280 human cancer cell lines
Experiment: OncoPanel cell proliferation assay (10-day)
Assay type: cell-based
Details: for EC50: read-out: Cell Count EC50; for IC50: read-out: Cell Count IC50
[1] = Homo sapiens, 22Rv1, 22Rv1, Prostate
[2] = Homo sapiens, 786-0, 786-O, Kidney
[3] = Homo sapiens, A7, Skin (Melanoma)
[4] = Homo sapiens, A 172, A172, CNS - Glioma
[5] = Homo sapiens, A253, A-253, Head and Neck
[6] = Homo sapiens, A388, Head and Neck
[7] = Homo sapiens, A498, A498, Kidney
[8] = Homo sapiens, A549, A549, Lung - NSCLC
[9] = Homo sapiens, A673, A-673, Soft Tissue - Sarcoma
[10] = Homo sapiens, A704, A-704, Kidney
[11] = Homo sapiens, A-375, A375, Skin (Melanoma)
[12] = Homo sapiens, A-427, A427, Lung - NSCLC
[13] = Homo sapiens, A-431, A431, Head and Neck
[14] = Homo sapiens, AN3-CA, AN3 CA, Female GU - Uterus
[15] = Homo sapiens, ARH-77, ARH-77, Myeloma
[16] = Homo sapiens, ASPC1, AsPC-1, Pancreas
[17] = Homo sapiens, AU565, AU565, Breast
[18] = Homo sapiens, BCP-1, BCP-1, Lymphoma
[19] = Homo sapiens, BE(2)-C, BE(2)C, CNS - Neuroblastoma
[20] = Homo sapiens, BFTC-905, BFTC-905, Bladder
[21] = Homo sapiens, BHT-101, BHT-101, Endocrine - Thyroid
[22] = Homo sapiens, BM-1604, BM-1604, Prostate
[23] = Homo sapiens, BPH-1, BPH1, Prostate
[24] = Homo sapiens, BT-20, BT20, Breast

Structure (SMILES): CC(C)=CCC[C@H](CO)[C@@H]1CC[C@@H](C)c2c1cc(C)c(O)c2O [Compound 1, 7,8,18-trihydroxyserrulat-14-ene]
- Number of cell types, GI Activity Potent (GI50 range 0.03-0.099 μM, of 280 cell types): 0
- Number of cell types, GI Activity moderately potent (GI50 range 0.1-0.99 μM, of 280 cell types): 23
- Number of cell types, GI Activity Strong (GI50 range 1-2.99 μM, of 280 cell types): 149
- Number of cell types, GI Activity moderately strong (GI50 range 3-9.99 μM, of 280 cell types): 99
- Number of cell types, GI Activity weak (GI50 range 10-30.00 μM, of 280 cell types): 6
- Number of cell types, GI Activity very weak (GI50 range >30 μM, of 280 cell types): 1
- EC50 [1]: 4080 nM
- GI50 (Homo sapiens, 22Rv1, 22Rv1, Prostate, read-out: Cell Count GI50): 4060 nM
- IC50 [1]: 4080 nM
- GI50 (Homo sapiens, 149 cell lines with strong activity, read-out: GI50): 1000 to 2980 nM
- GI50 (Homo sapiens, 174 cell lines with very potent to strong activity, read-out: GI50): 6 to 2980 nM
- EC50 (Homo sapiens, 647-V, Bladder): 3120 nM
- GI50 (Homo sapiens, 647-V, Bladder, read-out: Cell Count GI50): 3110 nM
- IC50 (Homo sapiens, 647-V, Bladder): 3120 nM
- EC50 (Homo sapiens, 769-P, Kidney): 850 nM
- GI50 (Homo sapiens, 769-P, Kidney, read-out: Cell Count GI50): 850 nM
- IC50 (Homo sapiens, 769-P, Kidney): 850 nM
- EC50 [2]: 2050 nM
- GI50 (Homo sapiens, 786-0, 786-O, Kidney, read-out: Cell Count GI50): 2050 nM
- IC50 [2]: 2050 nM
- EC50 (Homo sapiens, 5637, Bladder): 3380 nM
- GI50 (Homo sapiens, 5637, Bladder, read-out: Cell Count GI50): 3320 nM
- IC50 (Homo sapiens, 5637, Bladder): 3380 nM
- EC50 [3]: 940 nM
- GI50 (Homo sapiens, A7, Skin (Melanoma), read-out: Cell Count GI50): 940 nM
- IC50 [3]: 940 nM
- EC50 (Homo sapiens, A101D): 8420 nM
- GI50 (Homo sapiens, A101D, read-out: Cell Count GI50): 8250 nM
- IC50 (Homo sapiens, A101D): 8420 nM
- EC50 [4]: 1120 nM
- GI50 (Homo sapiens, A 172, A172, CNS - Glioma, read-out: Cell Count GI50): 1140 nM
- IC50 [4]: 1150 nM
- EC50 [5]: 4130 nM
- GI50 (Homo sapiens, A253, A-253, Head and Neck, read-out: Cell Count GI50): 4130 nM
- IC50 [5]: 4140 nM
- EC50 [6]: 1660 nM
- GI50 (Homo sapiens, A388, Head and Neck, read-out: Cell Count GI50): 1660 nM
- IC50 [6]: 1670 nM
- EC50 [7]: 1290 nM
- GI50 (Homo sapiens, A498, A498, Kidney, read-out: Cell Count GI50): 1290 nM
- IC50 [7]: 1290 nM
- EC50 [8]: 1660 nM
- GI50 (Homo sapiens, A549, A549, Lung - NSCLC, read-out: Cell Count GI50): 1660 nM
- IC50 [8]: 1670 nM
- EC50 [9]: 1540 nM
- GI50 (Homo sapiens, A673, A-673, Soft Tissue - Sarcoma, read-out: Cell Count GI50): 1540 nM
- IC50 [9]: 1550 nM
- EC50 [10]: 1570 nM
- GI50 (Homo sapiens, A704, A-704, Kidney, read-out: Cell Count GI50): 1540 nM
- IC50 [10]: 1600 nM
- EC50 [11]: 1050 nM
- GI50 (Homo sapiens, A-375, A375, Skin (Melanoma), read-out: Cell Count GI50): 1050 nM
- IC50 [11]: 1050 nM
- EC50 [12]: 4520 nM
- GI50 (Homo sapiens, A-427, A427, Lung - NSCLC, read-out: Cell Count GI50): 4500 nM
- IC50 [12]: 4520 nM
- EC50 [13]: 2800 nM
- GI50 (Homo sapiens, A-431, A431, Head and Neck, read-out: Cell Count GI50): 2800 nM
- IC50 [13]: 2810 nM
- EC50 (Homo sapiens, ACHN, Kidney): 1740 nM
- GI50 (Homo sapiens, ACHN, Kidney, read-out: Cell Count GI50): 1740 nM
- IC50 (Homo sapiens, ACHN, Kidney): 1740 nM
- EC50 (Homo sapiens, AGS, Stomach): 700 nM
- GI50 (Homo sapiens, AGS, Stomach, read-out: Cell Count GI50): 700 nM
- IC50 (Homo sapiens, AGS, Stomach): 700 nM
- EC50 [14]: 1520 nM
- GI50 (Homo sapiens, AN3-CA, AN3 CA, Female GU - Uterus, read-out: Cell Count GI50): 1490 nM
- IC50 [14]: 1520 nM
- EC50 [15]: 1950 nM
- GI50 (Homo sapiens, ARH-77, ARH-77, Myeloma, read-out: Cell Count GI50): 1950 nM
- IC50 [15]: 1970 nM
- EC50 [16]: 2870 nM
- GI50 (Homo sapiens, ASPC1, AsPC-1, Pancreas, read-out: Cell Count GI50): 2840 nM
- IC50 [16]: 2870 nM
- EC50 [17]: 1620 nM
- GI50 (Homo sapiens, AU565, AU565, Breast, read-out: Cell Count GI50): 1610 nM
- IC50 [17]: 1620 nM
- EC50 (Homo sapiens, BC-1, Lymphoma): 1520 nM
- GI50 (Homo sapiens, BC-1, Lymphoma, read-out: Cell Count GI50): 1510 nM
- IC50 (Homo sapiens, BC-1, Lymphoma): 1520 nM
- EC50 [18]: 3180 nM
- GI50 (Homo sapiens, BCP-1, BCP-1, Lymphoma, read-out: Cell Count GI50): 3140 nM
- IC50 [18]: 3180 nM
- EC50 [19]: 4230 nM
- GI50 (Homo sapiens, BE(2)-C, BE(2)C, CNS - Neuroblastoma, read-out: Cell Count GI50): 4180 nM
- IC50 [19]: 4230 nM
- EC50 [20]: 1790 nM
- GI50 (Homo sapiens, BFTC-905, BFTC-905, Bladder, read-out: Cell Count GI50): 1780 nM
- IC50 [20]: 1790 nM
- EC50 [21]: 2160 nM
- GI50 (Homo sapiens, BHT-101, BHT-101, Endocrine - Thyroid, read-out: Cell Count GI50): 2170 nM
- IC50 [21]: 2170 nM
- EC50 [22]: 2580 nM
- GI50 (Homo sapiens, BM-1604, BM-1604, Prostate, read-out: Cell Count GI50): 2560 nM
- IC50 [22]: 2580 nM
- EC50 [23]: 5240 nM
- GI50 (Homo sapiens, BPH-1, BPH1, Prostate, read-out: Cell Count GI50): 5200 nM
- IC50 [23]: 5240 nM
- EC50 [24]: 1590 nM
- GI50 (Homo sapiens, BT-20, BT20, Breast, read-out: Cell Count GI50): 1530 nM
- IC50 [24]: 1610 nM
